Measurements reported in publication PMC9656955, “The Novel Class IIa Selective Histone Deacetylase Inhibitor YAK540 Is Synergistic with Bortezomib in Leukemia Cell Lines” (International Journal of Molecular Sciences, 2022).

Legend:
Assay type in all cases: biochemical
HDAC 4 = biological target: T1, HDAC 4 (Homo sapiens, UniProt P56524); assay: recombinant enzyme fluorogenic assay, Boc-Lys-(Tfa)-AMC substrate; details: recombinant hdac 4; read-out: YAK540 / IC50 (pIC50 ±SEM) (converted)
T1 construct: gene HDAC4

HDAC 2 = biological target: T2, HDAC 2 (Homo sapiens, UniProt Q92769); assay: recombinant enzyme fluorogenic assay, Boc-Lys(Ac)-AMC substrate; details: recombinant hdac 2; read-out: YAK540 / IC50 (pIC50 ±SEM) (converted)
T2 construct: gene HDAC2

HDAC 6 = biological target: T3, HDAC 6 (Homo sapiens, UniProt Q9UBN7); assay: as above; details: recombinant hdac 6; read-out: YAK540 / IC50 (pIC50 ±SEM) (converted)
T3 construct: gene HDAC6
T3 sequence (Q9UBN7 1-1215): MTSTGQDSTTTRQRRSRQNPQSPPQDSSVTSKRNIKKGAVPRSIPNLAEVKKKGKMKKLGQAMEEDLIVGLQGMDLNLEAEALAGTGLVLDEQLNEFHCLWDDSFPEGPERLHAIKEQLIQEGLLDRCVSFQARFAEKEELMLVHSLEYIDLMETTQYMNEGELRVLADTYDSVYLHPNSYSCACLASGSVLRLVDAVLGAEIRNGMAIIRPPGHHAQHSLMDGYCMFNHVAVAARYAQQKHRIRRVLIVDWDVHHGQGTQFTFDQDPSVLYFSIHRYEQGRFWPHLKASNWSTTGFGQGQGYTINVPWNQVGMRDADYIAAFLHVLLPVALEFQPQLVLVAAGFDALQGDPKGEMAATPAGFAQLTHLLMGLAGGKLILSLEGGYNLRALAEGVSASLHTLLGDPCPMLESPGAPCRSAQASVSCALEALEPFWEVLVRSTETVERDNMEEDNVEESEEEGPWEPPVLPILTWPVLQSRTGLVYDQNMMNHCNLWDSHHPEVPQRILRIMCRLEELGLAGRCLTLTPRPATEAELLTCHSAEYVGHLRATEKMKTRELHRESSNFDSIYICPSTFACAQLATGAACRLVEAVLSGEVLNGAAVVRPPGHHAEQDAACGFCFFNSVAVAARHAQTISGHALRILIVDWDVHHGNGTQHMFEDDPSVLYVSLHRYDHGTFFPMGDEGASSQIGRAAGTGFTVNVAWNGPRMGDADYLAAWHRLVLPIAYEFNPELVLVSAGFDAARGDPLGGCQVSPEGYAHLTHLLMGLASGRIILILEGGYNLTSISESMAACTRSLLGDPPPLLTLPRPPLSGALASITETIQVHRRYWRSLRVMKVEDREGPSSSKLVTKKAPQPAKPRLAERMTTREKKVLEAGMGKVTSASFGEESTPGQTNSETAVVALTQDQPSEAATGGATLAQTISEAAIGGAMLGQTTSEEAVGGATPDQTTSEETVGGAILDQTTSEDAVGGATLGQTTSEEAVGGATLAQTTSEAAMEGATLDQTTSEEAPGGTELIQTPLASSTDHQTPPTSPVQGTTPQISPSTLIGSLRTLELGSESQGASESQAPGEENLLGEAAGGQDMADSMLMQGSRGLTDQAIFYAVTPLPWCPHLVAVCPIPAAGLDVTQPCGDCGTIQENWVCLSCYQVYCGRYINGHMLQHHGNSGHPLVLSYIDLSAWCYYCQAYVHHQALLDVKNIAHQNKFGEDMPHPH

HDAC 8 = biological target: T4, HDAC 8 (Homo sapiens, UniProt Q9BY41); assay: recombinant enzyme fluorogenic assay, Boc-Lys-(Tfa)-AMC substrate; details: recombinant hdac 8; read-out: YAK540 / IC50 (pIC50 ±SEM) (converted)
T4 construct: gene HDAC8
T4 sequence (Q9BY41 1-377): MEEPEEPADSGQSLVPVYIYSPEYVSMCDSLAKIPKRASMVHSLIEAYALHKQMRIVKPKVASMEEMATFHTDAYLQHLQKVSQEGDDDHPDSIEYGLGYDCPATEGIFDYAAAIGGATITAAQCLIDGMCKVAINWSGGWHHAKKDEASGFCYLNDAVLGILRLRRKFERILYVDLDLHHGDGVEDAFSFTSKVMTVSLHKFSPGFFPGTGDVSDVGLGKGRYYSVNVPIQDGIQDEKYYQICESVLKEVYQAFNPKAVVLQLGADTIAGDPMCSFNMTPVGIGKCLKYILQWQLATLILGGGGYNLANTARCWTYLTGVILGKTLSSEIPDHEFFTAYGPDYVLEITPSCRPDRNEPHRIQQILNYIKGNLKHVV

T1 sequence (P56524 whole entry): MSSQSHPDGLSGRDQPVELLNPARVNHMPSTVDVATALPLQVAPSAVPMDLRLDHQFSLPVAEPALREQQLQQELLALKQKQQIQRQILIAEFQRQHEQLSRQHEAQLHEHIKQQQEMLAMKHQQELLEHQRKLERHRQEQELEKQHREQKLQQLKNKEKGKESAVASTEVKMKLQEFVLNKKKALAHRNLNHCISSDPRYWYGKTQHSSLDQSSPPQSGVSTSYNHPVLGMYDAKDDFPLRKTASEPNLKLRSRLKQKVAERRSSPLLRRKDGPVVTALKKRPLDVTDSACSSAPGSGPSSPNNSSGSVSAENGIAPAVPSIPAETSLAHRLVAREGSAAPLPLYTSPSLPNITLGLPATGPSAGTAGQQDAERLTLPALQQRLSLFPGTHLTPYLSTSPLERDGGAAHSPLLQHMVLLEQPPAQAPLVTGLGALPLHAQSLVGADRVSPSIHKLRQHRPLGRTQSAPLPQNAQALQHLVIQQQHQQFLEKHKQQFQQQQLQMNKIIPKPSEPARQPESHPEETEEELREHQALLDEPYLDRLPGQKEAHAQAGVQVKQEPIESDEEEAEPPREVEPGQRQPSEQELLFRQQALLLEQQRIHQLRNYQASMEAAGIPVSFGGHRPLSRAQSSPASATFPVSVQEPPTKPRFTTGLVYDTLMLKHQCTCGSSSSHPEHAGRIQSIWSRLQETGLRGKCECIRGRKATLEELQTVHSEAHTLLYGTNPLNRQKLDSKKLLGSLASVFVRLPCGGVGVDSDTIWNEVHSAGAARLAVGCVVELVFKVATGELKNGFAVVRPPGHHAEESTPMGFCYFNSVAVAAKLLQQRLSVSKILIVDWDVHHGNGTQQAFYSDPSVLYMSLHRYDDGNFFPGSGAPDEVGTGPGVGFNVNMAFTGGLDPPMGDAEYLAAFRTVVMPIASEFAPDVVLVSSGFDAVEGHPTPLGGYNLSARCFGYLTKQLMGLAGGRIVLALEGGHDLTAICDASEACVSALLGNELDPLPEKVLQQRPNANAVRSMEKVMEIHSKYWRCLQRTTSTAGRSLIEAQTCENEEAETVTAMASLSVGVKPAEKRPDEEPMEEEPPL
T2 sequence (Q92769 whole entry): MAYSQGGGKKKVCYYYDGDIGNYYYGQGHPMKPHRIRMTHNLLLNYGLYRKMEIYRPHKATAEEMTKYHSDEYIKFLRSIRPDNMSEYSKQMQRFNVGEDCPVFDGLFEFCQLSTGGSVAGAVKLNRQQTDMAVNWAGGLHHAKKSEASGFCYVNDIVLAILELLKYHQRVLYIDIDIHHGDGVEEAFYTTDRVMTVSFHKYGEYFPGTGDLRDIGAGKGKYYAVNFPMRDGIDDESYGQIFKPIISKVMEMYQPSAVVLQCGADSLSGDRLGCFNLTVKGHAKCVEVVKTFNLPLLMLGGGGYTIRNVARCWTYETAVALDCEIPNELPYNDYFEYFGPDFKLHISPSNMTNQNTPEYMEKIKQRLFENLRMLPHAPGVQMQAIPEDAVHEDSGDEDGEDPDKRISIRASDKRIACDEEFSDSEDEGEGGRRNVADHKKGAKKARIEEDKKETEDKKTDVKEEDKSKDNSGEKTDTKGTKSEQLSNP

With `O=C(NOCCN1CCCCC1)c1ccc(-c2noc(C(F)(F)F)n2)cc1` [YAK540] the IC50 (HDAC 4) was 0.114 µM, the IC50 (HDAC 2) was 30.2 µM and the IC50 (HDAC 6) was 11.4 µM. The IC50 (HDAC 8) was 9.39 µM.
